Patent US12264170B2, “Antimicrobial organosilanes” (TOPIKOS SCIENTIFIC, INC., priority 2019, dated 2025)

What was measured:
[1] = Dissolution of isolated product in water; type: physicochemical; conditions: observation
[2] = product dissolved in water, observation

Molecule | dissolution in water [1] | stability in water [2]
CCCCCCCCCCCCCCCCCC[N+](C)(C)CCC[Si](OCC(CO)(CO)NCCS(=O)(=O)[O-])(OCC(CO)(CO)NCCS(=O)(=O)O)OCC(CO)(CO)NCCS(=O)(=O)O [Example 4, Sodium; 7,7-bis(3-hydroxy-2-(hydroxymethyl)-2-((2-sulfoethyl)amino)propoxy)-4,4-bis(hydroxymethyl)-11,11-dimethyl-6-oxa-3,11-diaza-7-silanonacosan-11-ium-1-sulfonate; chloride] | dissolved quickly in water, initially hazy but slowly forms clear | 
Disodium, 7-(2-((carboxymethyl)(2-hydroxyethyl)amino)ethoxy)-7-(3-(heptadecyldimethylammonio)propyl)-3,11-bis(2-hydroxyethyl)-6,8-dioxa-3,11-diaza-7-silatridecanedioate; chloride [Example 13] | readily dissolved in water | soon formed a suspension
CCCCCCCCCCCCCCCCC[N+](C)(C)CCC[Si]12OC[C@@H](O)[C@H](O1)[C@H](O)[C@H](C(=O)[O-])O2 [Example 16, Sodium (3R,4S,5S,6R)-1-(3-(heptadecyldimethylammonio)propyl)-4,6-dihydroxy-2,8,9-trioxa-1-silabicyclo[3.3.1]nonane-3-carboxylate; Chloride] | poorly dissolved in water | quickly decomposed to for a biphasic mixture
CCCCCCCCCCCCCCCCCC[N+](C)(C)CCC[Si](OCC(CO)(CO)NCCS(=O)(=O)[O-])(OCC(CO)(CO)NCCS(=O)(=O)O)OCC(CO)(CO)NCCS(=O)(=O)O [Example 1, Disodium; 2-[[1-[[3-[dimethyl(octadecyl)ammonio]propyl-[3-hydroxy-2-(hydroxymethyl)-2-(2-sulfoethylamino)propoxy]-[3-hydroxy-2-(hydroxymethyl)-2-(2-sulfonatoethylamino)propoxy]silyl]oxymethyl]-2-hydroxy-1-(hydroxymethyl)ethyl]amino]ethanesulfonate chloride] | dissolves in water | 
CCCCCCCCCCCCCCCCC[N+](C)(C)CCC[Si]1(O[C@H](C(=O)O)[C@H](O)[C@H](O)[C@@H](O)C(=O)O)O[C@@H]([C@H](O)C(=O)O)[C@H](O)[C@H](C(=O)O)O1 (stereo partly drawn) [Example 17, N-(3-((4R,5S,6R)-4-carboxy-6-((S)-carboxy(hydroxy)methyl)-2-((1S,2R,3S,4R)-1,4-dicarboxy-2,3,4-trihydroxybutoxy)-5-hydroxy-1,3,2-dioxasilinan-2-yl)propyl)-N,N-dimethylheptadecan-1-aminium chloride] | poorly dissolved in water | quickly decomposed to for a biphasic mixture
CCCCCCCCCCCCCCCCCC[N+](C)(C)CCC[Si](OCC(CO)(CO)NCC(=O)[O-])(OCC(CO)(CO)NCC(=O)[O-])OCC(CO)(CO)NCC(=O)O.[Cl-].[Na+].[Na+] [Example 10, Disodium, 7-(2-((carboxymethyl)amino)-3-hydroxy-2-(hydroxymethyl)propoxy)-7-(3-(dimethyl(octadecyl)ammonio)propyl)-4,4,10,10-tetrakis(hydroxymethyl)-6,8-dioxa-3,11-diaza-7-silatridecanedioate; chloride] | readily dissolved in water | 
CCCCCCCCCCCCCCCCCC[N+](C)(C)CCC[Si](OCC(CO)(CO)NCCS(=O)(=O)[O-])(OCC(CO)(CO)NCCS(=O)(=O)O)OCC(CO)(CO)NCCS(=O)(=O)O.[Cl-].[Na+] [Example 21, Monosodium; 2-[[1-[[3-[dimethyl(octadecyl)ammonio]propyl-[3-hydroxy-2-(hydroxymethyl)-2-(2-sulfoethylamino)propoxy]-[3-hydroxy-2-(hydroxymethyl)-2-(2-sulfonatoethylamino)propoxy]silyl]oxymethyl]-2-hydroxy-1-(hydroxymethyl)ethyl]amino]ethanesulfonate chloride] | dissolves readily in water | 
CCCCCCCCCCCCCCCCCC[N+](C)(C)CCC[Si](OCC(CO)(CO)NCC(O)CS(=O)(=O)[O-])(OCC(CO)(CO)NCC(O)CS(=O)(=O)O)OCC(CO)(CO)NCC(O)CS(=O)(=O)O (stereo not shown) [Example 2, Disodium; 3-[[1-[[3-[dimethyl(octadecyl)ammonio]propyl-[3-hydroxy-2-(hydroxymethyl)-2-[(2-hydroxy-3-sulfonato-propyl)amino]propoxy]-[3-hydroxy-2-(hydroxymethyl)-2-[(2-hydroxy-3-sulfo-propyl)amino]propoxy]silyl]oxymethyl]-2-hydroxy-1-(hydroxymethyl)ethyl]amino]-2-hydroxy-propane-1-sulfonate; chloride] | dissolves in water | 
CCCCCCCCCCCCCCCCC[N+](C)(C)CCC[Si](OCCN(CCO)CC(O)CS(=O)(=O)[O-])(OCCN(CCO)CC(O)CS(=O)(=O)O)OCCN(CCO)CC(O)CS(=O)(=O)O (stereo not shown) [Example 8, Disodium; 3-[2-[3-[heptadecyl(dimethyl)ammonio]propyl-[2-[2-hydroxyethyl-(2-hydroxy-3-sulfonato-propyl)amino]ethoxy]-[2-[2-hydroxyethyl-(2-hydroxy-3-sulfo-propyl)amino]ethoxy]silyl]oxyethyl-(2-hydroxyethyl)amino]-2-hydroxy-propane-1-sulfonate; chloride] | dissolved in water | forms a precipitate after 5 hours
